From patent publication US11446287B2, “Compounds and methods for EP300 or CBP modulation and indications therefor” (Opna Immuno-Oncology SA, priority 2019, dated 2022)

biological target: T1, Recombinant human BRD4 containing dual bromodomains (BRD4-BD12 (1-477)) (Homo sapiens, UniProt O60885); test: BRD4 Alphascreen binding assay
T1 construct: Recombinant human BRD4 containing dual bromodomains (BRD4-BD12 (1-477)); made in house; host or cells: E. coli BL21-CodonPlus (DE3), modified pET vector
In short: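 His-tagged human BRD4 tandem bromodomains (1-477, E. coli) incubated 1 h at room temperature with biotinylated tetra-acetylated H4 (1-21) peptide and compound in HEPES pH 7.5 buffer with 2 mM DTT. AlphaScreen signal read 30 min after adding beads (7.5 μg/ml); IC50 from four-parameter fit after normalization to controls.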

First: Cc1noc(C)c1-c1cnc2c(C(=O)C3CC3)c(O)n(-c3ccnc(C(=O)O)c3)c2c1 [P-0084, 4-(3-(cyclopropanecarbonyl)-6-(3,5-dimethylisoxazol-4-yl)-2-hydroxy-1H-pyrrolo[3,2-b]pyridin-1-yl)picolinic acid]
Second: Cc1noc(C)c1-c1cnc2c(C(=O)c3ccccc3Cl)cn(-c3ccnc(C(=O)O)c3)c2c1 [P-0089, 4-(3-(2-chlorobenzoyl)-6-(3,5-dimethylisoxazol-4-yl)-1H-pyrrolo[3,2-b]pyridin-1-yl)picolinic acid]
The IC50 of the first is lower: 0.0001 to 1 µM for the first, 1 to 8 µM for the second. The first is the more potent here.

Compared with `Cc1noc(C)c1-c1cnc2c(c1)c(-c1cccc(C(=O)O)c1)cn2C(=O)c1ccccc1` [P-0085, 3-(1-benzoyl-5-(3,5-dimethylisoxazol-4-yl)-1H-pyrrolo[2,3-b]pyridin-3-yl)benzoic acid], `Cc1noc(C)c1-c1cnc2c(c1)c(-c1cccc(C(=O)NS(C)(=O)=O)c1)cn2Cc1ccccc1` [P-0092, 3-(1-benzyl-5-(3,5-dimethylisoxazol-4-yl)-1H-pyrrolo[2,3-b]pyridin-3-yl)-N-(methylsulfonyl)benzamide] is lower in IC50: 8 to 1000 µM for the first, 1 to 8 µM for the second.

`Cc1noc(C)c1-c1cnc2c(CC3CCC3)cn(-c3c(C(=O)O)ccc(Br)c3F)c2c1` [P-0086, 4-bromo-2-(3-(cyclobutylmethyl)-6-(3,5-dimethylisoxazol-4-yl)-1H-pyrrolo[3,2-b]pyridin-1-yl)-3-fluorobenzoic acid] and `COc1c(-n2cc(CC3CCC3)c3ncc(-c4c(C)noc4C)cc32)ccc(C(=O)O)c1F` [P-0087, 4-(3-(cyclobutylmethyl)-6-(3,5-dimethylisoxazol-4-yl)-1H-pyrrolo[3,2-b]pyridin-1-yl)-2-fluoro-3-methoxybenzoic acid] fall in the same range of IC50: 1 to 8 µM for the first, 1 to 8 µM for the second.

First: Cc1noc(C)c1-c1cnc2c(C(=O)c3cccc(Cl)c3)cn(-c3ccnc(C(=O)O)c3)c2c1 [P-0088, 4-(3-(3-chlorobenzoyl)-6-(3,5-dimethylisoxazol-4-yl)-1H-pyrrolo[3,2-b]pyridin-1-yl)picolinic acid]
Second: Cc1noc(C)c1-c1cnc2c(Cc3cccc(Cl)c3)cn(-c3ccnc(C(=O)O)c3)c2c1 [P-0090, 4-(3-(3-chlorobenzyl)-6-(3,5-dimethylisoxazol-4-yl)-1H-pyrrolo[3,2-b]pyridin-1-yl)picolinic acid]
The IC50 of the first is higher: 1 to 8 µM for the first, 0.0001 to 1 µM for the second. The second is the more potent here.

`Cc1noc(C)c1-c1cnc2c(Cc3ccccc3Cl)cn(-c3ccnc(C(=O)O)c3)c2c1` [P-0091, 4-(3-(2-chlorobenzyl)-6-(3,5-dimethylisoxazol-4-yl)-1H-pyrrolo[3,2-b]pyridin-1-yl)picolinic acid] and `Cc1noc(C)c1-c1cnc2c(c1)c(-c1c(Cl)cc(C(=O)O)cc1Cl)cn2C(C)c1ccccn1` (stereo not shown) [P-0095, 3,5-dichloro-4-(5-(3,5-dimethylisoxazol-4-yl)-1-(1-(pyridin-2-yl)ethyl)-1H-pyrrolo[2,3-b]pyridin-3-yl)benzoic acid] fall in the same range of IC50: 1 to 8 µM for the first, 1 to 8 µM for the second.

First: Cc1noc(C)c1-c1cnc2c(c1)c(C1=CCC(C(=O)O)CC1)cn2Cc1ccccc1 (stereo not shown) [P-0093, 4-(1-benzyl-5-(3,5-dimethylisoxazol-4-yl)-1H-pyrrolo[2,3-b]pyridin-3-yl)cyclohex-3-ene-1-carboxylic acid]
Second: Cc1noc(C)c1-c1cnc2c(c1)c(-c1c(F)cc(C(=O)O)cc1F)cn2C(C)c1ccccn1 (stereo not shown) [P-0094, 4-(5-(3,5-dimethylisoxazol-4-yl)-1-(1-(pyridin-2-yl)ethyl)-1H-pyrrolo[2,3-b]pyridin-3-yl)-3,5-difluorobenzoic acid]
The IC50 of the first is lower: 1 to 8 µM for the first, 8 to 1000 µM for the second.

In the case of `Cc1noc(C)c1-c1cnc2c(c1)c(-c1c(F)ccc(NS(C)(=O)=O)c1F)cn2C(C)c1ccccn1` (stereo not shown) [P-0096, N-(3-(5-(3,5-dimethylisoxazol-4-yl)-1-(1-(pyridin-2-yl)ethyl)-1H-pyrrolo[2,3-b]pyridin-3-yl)-2,4-difluorophenyl)methanesulfonamide], the IC50 is reported as 1 to 8 µM.
